According to paper PMC5362750, “Discovery of Potent, Selective, and Orally Bioavailable Small-Molecule Modulators of the Mediator Complex-Associated Kinases CDK8 and CDK19” (Journal of Medicinal Chemistry, 2016):
≈ marks a conversion by molar mass, not a printed value. Read-outs that look alike come from different tables or passages of the source.

Tests used:
[1] = target: T1, EPHA4 (Homo sapiens, UniProt P54764); assay: Kinase panel (Millipore); assay type: biochemical; conditions: 1 µM, ATP at Km
T1 construct: purchased Millipore (KinaseProfiler) kinase panel

[2] = target: SYK (Homo sapiens, UniProt P43405); assay: Kinase panel (Millipore); assay type: biochemical; conditions: 1 µM, ATP at Km
[3] = target: T2, TXK (Homo sapiens, UniProt P42681); assay: Kinase panel (Millipore); assay type: biochemical; conditions: 1 µM, ATP at Km
T2 construct: purchased Millipore (KinaseProfiler) kinase panel

[4] = target: T3, FMS (Homo sapiens, UniProt P07333); assay: Kinase panel (Millipore); assay type: biochemical; conditions: 1 µM, ATP at Km
T3 construct: purchased Millipore (KinaseProfiler) kinase panel

[5] = 120 min, pH 7.4
[6] = In vivo mouse PK; conditions: female, NMRI, plasma, iv, 0.2 mg/kg
[7] = target: PKBBETA (Homo sapiens, UniProt P31751); assay: Kinase panel (Millipore); assay type: biochemical; conditions: 1 µM, ATP at Km
Chain of PKBBETA (P31751 whole entry): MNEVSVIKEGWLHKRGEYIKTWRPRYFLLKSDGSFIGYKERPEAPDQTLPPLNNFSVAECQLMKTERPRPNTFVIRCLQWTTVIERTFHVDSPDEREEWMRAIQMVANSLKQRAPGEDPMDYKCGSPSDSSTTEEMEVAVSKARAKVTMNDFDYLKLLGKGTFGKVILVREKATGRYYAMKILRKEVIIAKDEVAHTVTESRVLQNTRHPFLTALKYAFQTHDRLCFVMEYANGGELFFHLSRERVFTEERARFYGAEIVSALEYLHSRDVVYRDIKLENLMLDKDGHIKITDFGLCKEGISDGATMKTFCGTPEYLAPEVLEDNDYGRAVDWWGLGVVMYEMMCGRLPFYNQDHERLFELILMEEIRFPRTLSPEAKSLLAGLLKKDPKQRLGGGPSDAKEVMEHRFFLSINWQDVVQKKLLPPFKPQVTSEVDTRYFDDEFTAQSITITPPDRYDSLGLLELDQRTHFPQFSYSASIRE

[8] = target: PI3K BETA (Homo sapiens, UniProt P42338); assay: Kinase panel (Millipore); assay type: biochemical; conditions: 1 µM, ATP at Km
[9] = target: ABL (M351T) (Homo sapiens, UniProt P00519, M351T); conditions: 1 µM, ATP at Km
[10] = target: CAMKIV (Homo sapiens, UniProt Q16566); assay: Kinase panel (Millipore); assay type: biochemical; conditions: 1 µM, ATP at Km
[11] = target: cMET (Y1248C) (Homo sapiens, UniProt P08581, Y1230C); conditions: 1 µM, ATP at Km
[12] = target: CDK2/CYCLINE (Homo sapiens, UniProt P24941); conditions: 1 µM, ATP at Km
[13] = target: FGFR4 (Homo sapiens, UniProt P22455); assay: Kinase panel (Millipore); assay type: biochemical; conditions: 1 µM, ATP at Km
[14] = target: CAMKIIBETA (Homo sapiens, UniProt Q13554); assay: Kinase panel (Millipore); assay type: biochemical; conditions: 1 µM, ATP at Km
[15] = target: PKG1ALPHA (Homo sapiens, UniProt Q13976); assay: Kinase panel (Millipore); assay type: biochemical; conditions: 1 µM, ATP at Km
[16] = target: SAPK2A(T106M) (Homo sapiens, UniProt Q16539, T106M); conditions: 1 µM, ATP at Km
[17] = target: T4, MET (Homo sapiens, UniProt P08581); assay: Kinase panel (Millipore); assay type: biochemical; conditions: 1 µM, ATP at Km
T4 construct: purchased Millipore (KinaseProfiler) kinase panel

[18] = target: EEF-2K (Homo sapiens, UniProt O00418); assay: Kinase panel (Millipore); assay type: biochemical; conditions: 1 µM, ATP at Km
[19] = target: cMET (Y1248D) (Homo sapiens, UniProt P08581, Y1230D); conditions: 1 µM, ATP at Km
[20] = target: T5, BRSK1 (Homo sapiens, UniProt Q8TDC3); assay: Kinase panel (Millipore); assay type: biochemical; conditions: 1 µM, ATP at Km
T5 construct: purchased Millipore (KinaseProfiler) kinase panel
T5 sequence (Q8TDC3 whole entry): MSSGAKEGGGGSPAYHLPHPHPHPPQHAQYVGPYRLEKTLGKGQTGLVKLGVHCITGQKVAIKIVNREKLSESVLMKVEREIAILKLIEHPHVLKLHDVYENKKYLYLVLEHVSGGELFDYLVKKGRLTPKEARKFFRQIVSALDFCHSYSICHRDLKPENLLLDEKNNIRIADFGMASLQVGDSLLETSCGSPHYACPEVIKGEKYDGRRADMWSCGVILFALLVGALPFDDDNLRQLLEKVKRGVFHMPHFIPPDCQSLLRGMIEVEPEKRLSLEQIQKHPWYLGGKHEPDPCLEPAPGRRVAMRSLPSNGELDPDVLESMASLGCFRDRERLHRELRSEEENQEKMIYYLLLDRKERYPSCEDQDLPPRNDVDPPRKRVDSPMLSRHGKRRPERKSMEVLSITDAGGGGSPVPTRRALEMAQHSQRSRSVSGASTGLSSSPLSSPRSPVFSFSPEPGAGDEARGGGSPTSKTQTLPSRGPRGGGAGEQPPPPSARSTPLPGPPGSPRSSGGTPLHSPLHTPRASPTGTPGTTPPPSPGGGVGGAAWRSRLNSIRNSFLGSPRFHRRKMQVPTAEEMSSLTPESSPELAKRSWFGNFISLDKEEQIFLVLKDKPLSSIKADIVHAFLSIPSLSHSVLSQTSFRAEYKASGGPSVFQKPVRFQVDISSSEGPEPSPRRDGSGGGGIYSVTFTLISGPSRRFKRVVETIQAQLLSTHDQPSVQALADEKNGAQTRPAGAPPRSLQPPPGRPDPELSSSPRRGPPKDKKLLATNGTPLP

[21] = target: T6, VRK2 (Homo sapiens, UniProt Q86Y07); assay: Kinase panel (Millipore); assay type: biochemical; conditions: 1 µM, ATP at Km
T6 construct: purchased Millipore (KinaseProfiler) kinase panel

[22] = human
[23] = target: T7, IRR (Homo sapiens, UniProt P14616); assay: Kinase panel (Millipore); assay type: biochemical; conditions: 1 µM, ATP at Km
T7 construct: purchased Millipore (KinaseProfiler) kinase panel

[24] = test system: AMPA; conditions: 10 µM, agonist radioligand
[25] = target: CK1GAMMA3 (Homo sapiens, UniProt Q9Y6M4); assay: Kinase panel (Millipore); assay type: biochemical; conditions: 1 µM, ATP at Km
[26] = target: LIMK1 (Homo sapiens, UniProt P53667); assay: Kinase panel (Millipore); assay type: biochemical; conditions: 1 µM, ATP at Km
[27] = target: alpha 1B (h) (Homo sapiens, UniProt P35368); assay: biochemical; conditions: read-out: % Inhibition of Control Specific Binding
[28] = target: T8, BMX (Homo sapiens, UniProt P51813); assay: Kinase panel (Millipore); assay type: biochemical; conditions: 1 µM, ATP at Km
T8 construct: purchased Millipore (KinaseProfiler) kinase panel

[29] = test system: Ca2+ channel (L, diltiazem site) (benzothiazepines); conditions: 10 µM, antagonist radioligand
[30] = target: PHKGAMMA2 (Homo sapiens, UniProt P15735); assay: Kinase panel (Millipore); assay type: biochemical; conditions: 1 µM, ATP at Km
Chain of PHKGAMMA2 (P15735 whole entry): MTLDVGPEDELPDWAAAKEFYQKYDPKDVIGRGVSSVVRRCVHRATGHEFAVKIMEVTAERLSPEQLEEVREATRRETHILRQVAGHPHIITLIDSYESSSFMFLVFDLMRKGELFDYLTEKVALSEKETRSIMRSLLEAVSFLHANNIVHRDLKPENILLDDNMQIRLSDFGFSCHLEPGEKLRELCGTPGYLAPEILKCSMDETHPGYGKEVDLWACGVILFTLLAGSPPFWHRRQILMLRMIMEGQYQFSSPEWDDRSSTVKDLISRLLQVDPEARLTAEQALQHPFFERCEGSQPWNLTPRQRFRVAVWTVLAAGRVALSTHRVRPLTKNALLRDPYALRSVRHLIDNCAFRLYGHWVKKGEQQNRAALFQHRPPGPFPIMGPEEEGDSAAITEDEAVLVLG

[31] = target: T9, TRKA (Homo sapiens, UniProt P04629); assay: Kinase panel (Millipore); assay type: biochemical; conditions: 1 µM, ATP at Km
T9 construct: purchased Millipore (KinaseProfiler) kinase panel

[32] = target: DMPK (Homo sapiens, UniProt Q09013); assay: Kinase panel (Millipore); assay type: biochemical; conditions: 1 µM, ATP at Km
[33] = test system: CK1(Y); assay: Kinase panel (Millipore); assay type: biochemical; conditions: 1 µM, ATP at Km
[34] = target: MEK1 (Homo sapiens, UniProt Q02750); assay: Kinase panel (Millipore); assay type: biochemical; conditions: 1 µM, ATP at Km
Chain of MEK1 (Q02750 whole entry): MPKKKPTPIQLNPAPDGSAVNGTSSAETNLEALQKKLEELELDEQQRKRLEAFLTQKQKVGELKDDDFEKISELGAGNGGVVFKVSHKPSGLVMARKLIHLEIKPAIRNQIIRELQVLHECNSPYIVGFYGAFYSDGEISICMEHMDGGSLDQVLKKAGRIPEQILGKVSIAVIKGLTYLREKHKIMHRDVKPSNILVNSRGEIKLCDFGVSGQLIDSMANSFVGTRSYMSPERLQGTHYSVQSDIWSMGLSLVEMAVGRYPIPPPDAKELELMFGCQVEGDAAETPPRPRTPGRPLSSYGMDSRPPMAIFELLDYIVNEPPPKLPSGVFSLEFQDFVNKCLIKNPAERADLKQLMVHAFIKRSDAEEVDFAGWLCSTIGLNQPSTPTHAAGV

[35] = target: N neuronal alpha 4beta 2 (h) (Homo sapiens, UniProt P17787+P43681); assay: biochemical; conditions: read-out: % Inhibition of Control Specific Binding
Chain of N neuronal alpha 4beta 2 (h) (P43681 29-627 limits assumed): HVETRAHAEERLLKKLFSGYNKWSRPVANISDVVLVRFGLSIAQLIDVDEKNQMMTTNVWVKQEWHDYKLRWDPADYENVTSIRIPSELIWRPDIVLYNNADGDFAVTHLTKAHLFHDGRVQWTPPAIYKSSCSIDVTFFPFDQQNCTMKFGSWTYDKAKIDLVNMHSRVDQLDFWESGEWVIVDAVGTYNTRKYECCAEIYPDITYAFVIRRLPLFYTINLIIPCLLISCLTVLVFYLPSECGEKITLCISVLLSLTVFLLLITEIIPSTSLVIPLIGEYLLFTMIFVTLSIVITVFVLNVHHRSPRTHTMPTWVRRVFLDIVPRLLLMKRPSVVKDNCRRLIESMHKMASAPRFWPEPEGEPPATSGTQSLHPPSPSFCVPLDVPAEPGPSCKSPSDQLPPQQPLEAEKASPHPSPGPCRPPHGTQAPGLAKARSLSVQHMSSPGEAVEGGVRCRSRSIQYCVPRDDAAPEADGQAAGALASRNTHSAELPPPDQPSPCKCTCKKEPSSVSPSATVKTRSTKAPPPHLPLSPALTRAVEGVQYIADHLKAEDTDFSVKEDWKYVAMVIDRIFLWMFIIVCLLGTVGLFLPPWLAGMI
Chain of N neuronal alpha 4beta 2 (h) (P17787 26-502): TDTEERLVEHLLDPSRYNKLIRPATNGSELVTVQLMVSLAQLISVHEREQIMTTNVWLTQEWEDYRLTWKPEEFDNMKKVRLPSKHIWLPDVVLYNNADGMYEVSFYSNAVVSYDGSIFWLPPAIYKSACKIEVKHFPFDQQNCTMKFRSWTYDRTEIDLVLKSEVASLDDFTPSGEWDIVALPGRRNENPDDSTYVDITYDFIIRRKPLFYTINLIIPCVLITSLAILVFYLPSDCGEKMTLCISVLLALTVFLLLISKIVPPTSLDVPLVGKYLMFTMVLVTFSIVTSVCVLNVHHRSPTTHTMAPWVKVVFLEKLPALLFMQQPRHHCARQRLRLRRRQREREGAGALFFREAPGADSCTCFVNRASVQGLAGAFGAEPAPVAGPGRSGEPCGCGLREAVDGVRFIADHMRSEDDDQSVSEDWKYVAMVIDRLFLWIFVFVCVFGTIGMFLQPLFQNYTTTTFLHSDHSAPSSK

[36] = target: SAPK4 (Homo sapiens, UniProt O15264); assay: Kinase panel (Millipore); assay type: biochemical; conditions: 1 µM, ATP at Km
[37] = test system: PCP; conditions: 10 µM, antagonist radioligand
[38] = target: ZIPK (Homo sapiens, UniProt O43293); assay: Kinase panel (Millipore); assay type: biochemical; conditions: 1 µM, ATP at Km
Chain of ZIPK (O43293 whole entry): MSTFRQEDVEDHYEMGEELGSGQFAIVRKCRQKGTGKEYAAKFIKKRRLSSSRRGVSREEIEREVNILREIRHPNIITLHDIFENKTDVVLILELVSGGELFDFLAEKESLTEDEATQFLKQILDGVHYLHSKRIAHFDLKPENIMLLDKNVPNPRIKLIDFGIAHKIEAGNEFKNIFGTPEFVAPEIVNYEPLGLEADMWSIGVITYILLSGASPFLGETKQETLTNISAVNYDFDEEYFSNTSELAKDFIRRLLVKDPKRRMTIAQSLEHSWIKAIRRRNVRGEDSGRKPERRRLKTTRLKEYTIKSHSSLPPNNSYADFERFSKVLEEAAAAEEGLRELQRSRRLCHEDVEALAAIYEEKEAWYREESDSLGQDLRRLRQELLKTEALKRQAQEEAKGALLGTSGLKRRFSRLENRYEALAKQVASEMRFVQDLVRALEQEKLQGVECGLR

[39] = target: ABL(Y253F) (Homo sapiens, UniProt P00519, Y253F); conditions: 1 µM, ATP at Km
[40] = target: T10, DCAMKL2 (Homo sapiens, UniProt Q8N568); assay: Kinase panel (Millipore); assay type: biochemical; conditions: 1 µM, ATP at Km
T10 construct: purchased Millipore (KinaseProfiler) kinase panel

[41] = target: T11, FGFR1 (Homo sapiens, UniProt P11362); assay: Kinase panel (Millipore); assay type: biochemical; conditions: 1 µM, ATP at Km
T11 construct: purchased Millipore (KinaseProfiler) kinase panel

[42] = target: T12, FP (h) (Homo sapiens, UniProt P43088); assay: CEREP binding assay; conditions: agonist radioligand, read-out: % Inhibition of Control Specific Binding
T12 construct: purchased Millipore (KinaseProfiler) kinase panel
T12 sequence (P43088 whole entry): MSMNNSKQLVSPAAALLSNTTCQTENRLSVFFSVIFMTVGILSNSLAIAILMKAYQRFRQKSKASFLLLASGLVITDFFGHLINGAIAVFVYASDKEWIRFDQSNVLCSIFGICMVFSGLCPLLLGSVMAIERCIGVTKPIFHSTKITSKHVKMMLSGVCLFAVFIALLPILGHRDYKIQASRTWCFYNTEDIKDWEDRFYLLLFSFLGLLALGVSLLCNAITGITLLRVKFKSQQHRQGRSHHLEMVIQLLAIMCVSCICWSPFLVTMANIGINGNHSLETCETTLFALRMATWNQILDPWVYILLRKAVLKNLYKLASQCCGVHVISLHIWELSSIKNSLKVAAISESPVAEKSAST

[43] = target: T13, PKCMU (Homo sapiens, UniProt Q15139); assay: Kinase panel (Millipore); assay type: biochemical; conditions: 1 µM, ATP at Km
T13 construct: purchased Millipore (KinaseProfiler) kinase panel
T13 sequence (Q15139 whole entry): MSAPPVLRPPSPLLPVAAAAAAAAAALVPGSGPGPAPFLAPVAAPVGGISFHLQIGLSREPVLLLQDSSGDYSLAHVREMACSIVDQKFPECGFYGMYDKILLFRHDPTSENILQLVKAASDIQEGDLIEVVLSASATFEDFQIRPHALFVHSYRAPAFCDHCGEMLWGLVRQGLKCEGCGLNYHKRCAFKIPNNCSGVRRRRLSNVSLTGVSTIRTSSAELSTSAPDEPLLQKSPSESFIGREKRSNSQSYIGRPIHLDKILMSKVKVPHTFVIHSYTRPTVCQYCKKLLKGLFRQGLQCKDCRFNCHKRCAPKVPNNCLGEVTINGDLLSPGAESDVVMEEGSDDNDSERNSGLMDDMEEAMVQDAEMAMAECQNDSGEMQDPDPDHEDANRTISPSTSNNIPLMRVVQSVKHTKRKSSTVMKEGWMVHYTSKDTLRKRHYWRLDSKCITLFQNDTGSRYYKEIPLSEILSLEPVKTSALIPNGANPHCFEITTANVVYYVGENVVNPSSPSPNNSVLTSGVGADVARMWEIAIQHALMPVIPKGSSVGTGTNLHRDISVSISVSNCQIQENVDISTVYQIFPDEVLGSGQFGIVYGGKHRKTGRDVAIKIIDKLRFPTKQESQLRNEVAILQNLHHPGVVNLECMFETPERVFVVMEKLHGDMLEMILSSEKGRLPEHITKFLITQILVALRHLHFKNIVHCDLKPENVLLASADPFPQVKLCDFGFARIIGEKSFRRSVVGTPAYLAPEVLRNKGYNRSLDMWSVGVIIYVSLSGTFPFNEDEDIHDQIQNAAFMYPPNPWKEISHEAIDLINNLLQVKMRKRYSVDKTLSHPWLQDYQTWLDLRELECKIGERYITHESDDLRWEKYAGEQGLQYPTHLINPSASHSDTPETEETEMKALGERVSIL

Cn1ncc2cc(-c3cnc(N)c(Cl)c3N3CCC4(CCNC4=O)CC3)ccc21 [Compound 109, 8-(2-Amino-3-chloro-5-(1-methyl-1H-indazol-5-yl)pyridin-4-yl)-2,8-diazaspiro[4.5]decan-1-one]
% effect [1]: 5%
% effect [2]: 2%
% effect [3]: -5%
% effect [4]: -23%
Solubility Kinetic [5]: 137 µM (≈ 56.3 µg/mL)
Vd [6]: 0.63 L/kg
clearance ([6]; Cl, 0.2 mg/kg iv): 10.2 mL/min/kg
% effect [7]: -21%
% effect [8]: 2%
% effect [9]: -11%
% effect [10]: 14%
% effect [11]: -3%
% effect [12]: 3%
% effect [13]: 6%
% effect [14]: 19%
% effect [15]: 23%
% effect [16]: 2%
% effect [17]: 1%
% effect [18]: -6%
% effect [19]: -1%
% effect [20]: 7%
% effect [21]: 3%
Vd [22]: 1.4 L/kg
clearance [22]: 6 mL/min/kg
% effect [23]: 5%
% Inhibition of Control Specific Binding [24]: 3%
% effect [25]: -7%
% effect [26]: -13%
inhibition at 10 µM [27]: 15%
% effect [28]: -6%
% Inhibition of Control Specific Binding [29]: 5%
% effect [30]: 11%
% effect [31]: 2%
% effect [32]: 4%
% effect [33]: -1%
% effect [34]: -13%
inhibition at 10 µM [35]: -6%
% effect [36]: -1%
% Inhibition of Control Specific Binding [37]: -1%
% effect [38]: 6%
% effect [39]: 1%
% effect [40]: -3%
% effect [41]: 7%
inhibition at 10 µM [42]: -1%
% effect [43]: 5%
